Patent US8604029B2, “2-[(2-substituted)-indolizin-3-yl]-2-oxo-acetamide derivatives as antifungal agents” (F2G Ltd British Body Corporate, priority 2006, dated 2013)

Test system: Aspergillus fumigatus
Test: MIC measurement, YAG medium
Format: cell-based
Conditions: Aspergillus fumigatus; YAG medium; MIC banded into grades; strain AF293; read-out: MIC A. fumigatus
Experimental: Between 1 and 5 mgs of compound were accurately weighed out into a sterile Eppendorf tube. The compound was dissolved in DMSO to give a solution containing […]. Tubes were stored at −20° C. until required.
On the day of testing thawed solutions were vortex mixed to ensure homogeneity. 30 μL of solution was removed and added to 570 μL of sterile water in a separate sterile Eppendorf. The thoroughly mixed solution was used to prepare a series of doubling dilutions in water, in a deep well plate. Thirteen replicate plates were prepared using a Minitrak by aspirating 20 μL from each well into eleven clear polystyrene 96 well plates.
Spores of Aspergillus spp. (Aspergillus fumigatus [two strains], Aspergillus terreus [two strains], Aspergillus niger and Aspergillus flavus) were harvested from cultures grown on Sabarauds agar for 5 days, and resuspended in PBS/Tween 80 to approx 1×10^7 cfu/mL. Other filamentous fungi (Absidia corymbifera, Fusarium solani, Rhizomucor, Scedosporium spp., Trichophyton spp.), were grown on Sabarauds agar for 2-10 days and spores/hyphae resuspended in PBS/Tween to give approx 1×10^7 cfu/mL. Candida species (Candida albicans, Candida glabrata, Candida krusei, Candida parapsilosis and Candida tropicalis) were grown on Sabarauds agar, cells were harvested from the agar using a sterile loop and resuspended in PBS/Tween 80 to approx 1×10^6 cfu/mL. Each organism suspension was diluted in RPMI medium, containing 2% glucose and 0.135 M MOPS buffer (pH 7.0) to 0.5-2×10^4 cfu/mL for Aspergillus spp. and other filamentous fungi and 0.5-2×10^3 cfu/mL for yeast. 80 μL of an organism suspension was added to each well of the plate containing drug dilutions.
This produced MIC plates with a drug range 50-0.05 mg/L and organism inocula of 1-2×10^4 cfu/mL for Aspergillus spp. and other filamentous fungi and 1-2×10^3 cfu/mL for yeasts. All plates were incubated for 24-48 hrs at 35° C. Growth was assessed by monitoring the optical density at 485 nm for each well. The MIC of a compound is the lowest drug concentration that inhibits growth of an organism by >80% compared with a drug free control. MICs are recorded as mg/L. Other growth media can be used for susceptibility testing, and the activity of the described compounds can also be assessed in a medium comprising 1% glucose, 1% ammonium chloride and 0.5% yeast extract (YAG medium). To perform MIC tests in this medium, dilutions of compounds are prepared in microtitre plates as described above. Fungal strains to be tested are grown and harvested in an identical manner to that described above, each organism suspension is then diluted in YAG medium to 0.5-2×10^4 cfu/mL for Aspergillus spp. and other filamentous fungi and 0.5-2×10^3 cfu/mL for yeast. 80 μL of an organism suspension was added to each well of the plate containing drug dilutions. This produced MIC plates with a drug range 50-0.05 mg/L and organism inocula of 1-2×10^4 cfu/mL for Aspergillus spp. and other filamentous fungi and 1-2×10^3 cfu/mL for yeasts. All plates were incubated for 24 hrs at 35° C. Growth was assessed by monitoring the optical density at 485 nm for each well. The MIC of a compound is the lowest drug concentration that inhibits growth of an organism by >70% compared with a drug free control. MICs are recorded as mg/L. In cases where the MIC of an organism is […] mg/L the MIC is repeated using a concentration range of 0.5-0.0005 mg/L. MIC tests in YAG medium have more clear-cut endpoints and have slightly lower MICs than those performed in RPMI medium.
The following organisms were tested: Absidia corymbifera, Aspergillus flavus, Aspergillus fumigatus AF293 and AF210, Aspergillus niger, Aspergillus terreus AT4 and AT49, Candida albicans, Candida glabrata, Candida krusei, Candida parapsilosis, Candida tropicalis, Fusarium solani, Rhizomucor sp., Scedosporium apiospermum, Scedosporium prolificans, Trichophyton mentagrophytes, and Trichophyton rubrum.

MIC [µg/mL] | SMILES
< 1 | Cc1cc(C)nc(N(C)CCOc2ccc(NC(=O)C(=O)c3c(-c4ccccc4)cc4ccccn34)cc2)c1 [Example 64, N-(4-{2-[(4,6-Dimethyl-pyridin-2-yl)-methyl-amino]-ethoxy}-phenyl)-2-oxo-2-(2-phenyl-indolizin-3-yl)-acetamide]
< 1 | Cc1cc(C)nc(OCCOc2ccc(NC(=O)C(=O)c3c(-c4ccccc4)cc4ccccn34)cc2)c1 [Example 65, N-{4-[2-(4,6-Dimethyl-pyridin-2-yloxy)-ethoxy]-phenyl}-2-oxo-2-(2-phenyl-indolizin-3-yl)-acetamide]
< 1 | Cc1cc(C)nc(N(C)CCCN(C)c2ccc(NC(=O)C(=O)c3c(-c4ccccc4)cc4ccccn34)cc2)c1 [Example 67, N-[4-({3-[(4,6-dimethyl-pyridin-2-yl)-methyl-amino]-propyl}-methyl-amino)-phenyl]-2-oxo-2-(2-phenyl-indolizin-3-yl)-acetamide]
< 1 | Cc1cc(C)nc(NCCN(C)c2ccc(NC(=O)C(=O)c3c(-c4ccccc4)cc4ccccn34)cc2)c1 [Example 69, N-(4-{[2-(4,6-dimethyl-pyridin-2-ylamino)-ethyl]-methyl-amino}-phenyl)-2-oxo-2-(2-phenyl-indolizin-3-yl)-acetamide]
< 1 | Cc1cc(OCCOc2ccc(NC(=O)C(=O)c3c(-c4ccccc4)cc4ccccn34)cc2)cc(C)n1 [Example 71, N-{4-[2-(2,6-Dimethyl-pyridin-4-yloxy)-ethoxy]-phenyl}-2-oxo-2-(2-phenyl-indolizin-3-yl)-acetamide]
< 1 | Cc1cc(C)nc(CCCCc2ccc(NC(=O)C(=O)c3c(-c4ccccc4)cc4ccccn34)cc2)c1 [Example 72, N-{4-[4-(4,6-Dimethyl-pyridin-2-yl)-butyl]-phenyl}-2-oxo-2-(2-phenyl-indolizin-3-yl)-acetamide]
< 1 | Cc1cc(C)nc(N(C)CCNc2ccc(NC(=O)C(=O)c3c(-c4ccccc4)cc4ccccn34)cc2)c1 [Example 78, N-(4-{2-[(4,6-Dimethyl-pyridin-2-yl)-methyl-amino]-ethylamino}-phenyl)-2-oxo-2-(2-phenyl-indolizin-3-yl)-acetamide]
> 10 | Cc1cc(C)nc(N2CCC(O)(c3ccc(NC(=O)C(=O)c4c(-c5ccccc5)cc5ccccn45)cc3)CC2)c1 [Example 79, N-[4-(4-hydroxy-4′,6′-dimethyl-3,4,5,6-tetrahydro-2H-[1,2′]-bipyridinyl-4-yl)-phenyl]-2-oxo-2-(2-phenyl-indolizin-3-yl)-acetamide]
< 1 | Cc1cc(C)nc(N2CCN(c3ccc(NC(=O)C(=O)c4c(-c5ccccc5)cc5ccccn45)c(C)c3)CC2)c1 [Example 80, N-{4-[4-(4,6-Dimethyl-pyridin-2-yl)-piperazin-1-yl]-2-methyl-phenyl}-2-oxo-2-(2-phenyl-indolizin-3-yl)-acetamide]
< 1 | COCc1cc(NC(=O)C(=O)c2c(-c3ccccc3)cc3ccccn23)ccc1N1CCN(c2cc(C)cc(C)n2)CC1 [Example 81, N-{4-[4-(4,6-Dimethyl-pyridin-2-yl)-piperazin-1-yl]-3-methoxymethyl-phenyl}-2-oxo-2-(2-phenyl-indolizin-3-yl)-acetamide]
< 1 | Cc1cc(C)nc(N2CCN(c3ccc(NC(=O)C(=O)c4c(-c5ccccc5)cc5ccccn45)cc3C)CC2)c1 [Example 82, N-{4-[4-(4,6-Dimethyl-pyridin-2-yl)-piperazin-1-yl]-3-methyl-phenyl}-2-oxo-2-(2-phenyl-indolizin-3-yl)-acetamide]

Continued, compound first:

SMILES | MIC [µg/mL]
Cc1cc(C)nc(N2CCN(c3ccc(NC(=O)C(=O)c4c(C5CC5)cc5ccccn45)cc3)CC2)c1 [Example 58, 2-(2-Cyclopropyl-indolizin-3-yl)-N-{4-[4-(4,6-dimethyl-pyridin-2-yl)-piperazin-1-yl]-phenyl}-2-oxo-acetamide] | < 1
O=C(Nc1ccc(N2CCN(c3cccnc3)CC2)cc1)C(=O)c1c(-c2ccccc2)cc2ccccn12 [Example 59, 2-Oxo-2-(2-phenyl-indolizin-3-yl)-N-[4-(4-pyridin-3-yl-piperazin-1-yl)-phenyl]-acetamide] | < 1
Cc1cc(C)nc(N2CCN(c3ccc(NC(=O)C(=O)c4c(C5CCCCC5)cc5ccccn45)cc3)CC2)c1 [Example 60, 2-(2-Cyclohexyl-indolizin-3-yl)-N-{4-[4-(4,6-dimethyl-pyridin-2-yl)-piperazin-1-yl]-phenyl}-2-oxo-acetamide] | < 1
Cc1cc(C)nc(N2CCN(c3ccc(NC(=O)C(=O)c4c(C(C)C)cc5ccccn45)cc3)CC2)c1 [Example 61, N-{4-[4-(4,6-Dimethyl-pyridin-2-yl)-piperazin-1-yl]-phenyl}-2-(2-isopropyl-indolizin-3-yl)-2-oxo-acetamide] | < 1
Cc1cc(C)nc(N2CCN(c3ccc(NC(=O)C(=O)c4c(C(C)(C)C)cc5ccccn45)cc3)CC2)c1 [Example 62, 2-(2-tert-Butyl-indolizin-3-yl)-N-{4-[4-(4,6-dimethyl-pyridin-2-yl)-piperazin-1-yl]-phenyl}-2-oxo-acetamide] | > 10
Cc1cc(C)nc(N2CCN(c3ccc(NC(=O)C(=O)c4c(C5CCN(C)CC5)cc5ccccn45)cc3)CC2)c1 [Example 63, N-{4-[4-(4,6-Dimethyl-pyridin-2-yl)-piperazin-1-yl]-phenyl}-2-[2-(1-methyl-piperidin-4-yl)-indolizin-3-yl]-2-oxo-acetamide] | > 10
Cc1cc(C)nc(N2CCN(c3ccc(NC(=O)C(=O)c4c(C5CCOCC5)cc5ccccn45)cc3)CC2)c1 [Example 66, N-{4-[4-(4,6-Dimethyl-pyridin-2-yl)-piperazin-1-yl]-phenyl}-2-oxo-2-[2-(tetrahydro-pyran-4-yl)-indolizin-3-yl]-acetamide] | < 1
COCCN(C)c1ccc(N2CCN(c3ccc(NC(=O)C(=O)c4c(-c5ccccc5)cc5ccccn45)cc3)CC2)cn1 [Example 68, N-[4-(4-{6-[(2-Methoxy-ethyl)-methyl-amino]-pyridin-3-yl}-piperazin-1-yl)-phenyl]-2-oxo-2-(2-phenyl-indolizin-3-yl)-acetamide] | < 1
CCc1cccc(N2CCN(c3ccc(NC(=O)C(=O)c4c(-c5ccccc5)cc5ccccn45)cc3)CC2)n1 [Example 73, N-{4-[4-(6-ethyl-pyridin-2-yl)-piperazin-1-yl]-phenyl}-2-oxo-2-(2-phenyl-indolizin-3-yl)-acetamide] | < 1
Cc1ccc(N2CCN(c3ccc(NC(=O)C(=O)c4c(-c5ccccc5)cc5ccccn45)cc3)CC2)nc1 [Example 74, N-{4-[4-(5-Methyl-pyridin-2-yl)-piperazin-1-yl]-phenyl}-2-oxo-2-(2-phenyl-indolizin-3-yl)-acetamide] | < 1
CCc1ccnc(N2CCN(c3ccc(NC(=O)C(=O)c4c(-c5ccccc5)cc5ccccn45)cc3)CC2)c1 [Example 75, N-{4-[4-(4-ethyl-pyridin-2-yl)-piperazin-1-yl]-phenyl}-2-oxo-2-(2-phenyl-indolizin-3-yl)-acetamide] | < 1
COCCOCCOc1cc(C)nc(N2CCN(c3ccc(NC(=O)C(=O)c4c(-c5ccccc5)cc5ccccn45)cc3)CC2)c1 [Example 76, N-[4-(4-{4-[2-(2-methoxy-ethoxy)-ethoxyl]-6-methyl-pyridin-2-yl}-piperazin-1-yl)-phenyl]-2-oxo-2-(2-phenyl-indolizin-3-yl)-acetamide] | < 1
COCc1cc(N2CCN(c3cc(C)cc(C)n3)CC2)ccc1NC(=O)C(=O)c1c(-c2ccccc2)cc2ccccn12 [Example 83, N-{4-[4-(4,6-Dimethyl-pyridin-2-yl)-piperazin-1-yl]-2-methoxymethyl-phenyl}-2-oxo-2-(2-phenyl-indolizin-3-yl)-acetamide] | < 1
